Results: patent publication US9187784B2, “EphA4 is a disease modifier in motor neuron disease” (VIB VZW, priority 2011, dated 2015)
Marks after values point to notes of the source that are not given here.

Experiments:
Type in all cases: in vivo
[1] = tested on: TDP43A315T embryos; test: mutant TDP-43-induced motor axonopathy in zebrafish embryos
Experimental: (§1) FIG. 14: Inhibiting EphA4 signaling rescues motor axonopathies induced by overexpression of mutant TDP-43 and knockdown of Smn. Y-axes show motor axon length of zebrafish embryos (30 hpf) expressing TDP^WT (black bar) or TDP^A315T (white bar) (Panels A, B) or with unaltered (black bar) or reduced expression levels of Smn (white bar) (Panels C, D). Smn knockdown was established by injection of 3 ng (Panel C) or 6 ng (Panel D) atg-smn morpholino. Ctr-smn morpholino was injected as control. RTK1 signaling was inhibited by injection of 3 ng atg-RTK1 morpholino (shaded bars) (Panels A, C) or by treatment with C1 (500 μM, shaded bars) (Panels B, D). Injection of ctr-RTK1 morpholino and application of a 1/250 dilution of DMSO were used as control. ANOVA and Bonferroni's multiple comparison tests were used for statistical analysis: TDP^A315T/atg-RTK1 (n=24) vs. TDP^A315T/ctr-RTK1 (n=34, p=7.86×10^−5, Panel A), TDP^A315T/C1 (n=21) vs. TDP^A315T/DMSO (n=21, p=0.045, Panel B), atg-smn/atg-RTK1 (n=35) vs. atg-smn/ctr-RTK1 (n=35, p=4.93×10^−8, Panel C), atg-smn/C1 (n=91) vs. atg-smn/DMSO (n=105, p=1.27×10^−6, Panel D). Error bars are s.e.m.
Mann-Whitney test was used to determine significance between TDPA315T/ctr-RTK1 (4.5 ng) vs. TDPA315T/atg-RTK1 (4.5 ng, * p=0.001) and between TDPA315T/control vs. TDPA315T/C1 (° p=0.029). Control=1/250 DMSO and C1=500 μM.
(§2) A morpholino database of translation-blocking morpholinos (atg-mo) was used to perform a morpholino-based knockdown screening in a zebrafish model for ALS.^13 The standard control morpholino (5′-[…]-′3) (SEQ ID NO:4), provided by Gene tools, was used as control. Three nanograms of morpholino were co-injected with […] of SOD1 mRNA and the effect of gene knockdown on the mutant SOD1-induced axonopathy analyzed. Each morpholino was tested in two separate experiments. Only morphologically normal embryos were included for further analysis. Overexpression of SOD1 or TDP-43, applied to validate the protective morpholino, was established by injection of 1.76 ng SOD1 mRNA or 1.43 ng TDP-43 mRNA, respectively. Antisense morpholinos to knockdown zebrafish RTK1, RTK2, Smn and their five base pair-mismatch control morpholinos were developed by Gene tools: atg-RTK1 (5′-[…]-′3) (SEQ ID NO:5), atg-RTK2 (5′-[…]-[…]-′3) (SEQ ID NO:6), splice-RTK2 (5′-[…]-[…]-′3) (SEQ ID NO:7) and atg-smn (5′-[…]-3′) (SEQ ID NO:8). Compound 1 (2,5-dimethylpyrrolyl benzoic acid, Matrix Scientific) dissolved in DMSO was added to the water of 6-hpf-old zebrafish embryos.

[2] = tested on: non-transgenic or wild-type SOD1-expressing fish; test: axonal and total body length in non-transgenic or wild-type SOD1-expressing fish; details: zebrafish, average ± s.e.m.
Experimental: Y-axes show motor axon length of non-transgenic (black bar) or SOD1WT-expressing (white bar) zebrafish embryos, injected with either atg-RTK2 (shaded bars, Panel A) or atg-RTK1 morpholino (shaded bars, Panel B). Ctr-RTK2 and ctr-RTK1 were used as controls. Error bars are s.e.m.
To identify disease-modifying genes in ALS in an unbiased way, knockdown screening was performed in the mutant SOD1 zebrafish model (reference 13), using a library of 303 translation blocking morpholinos (atg-mo), of which 58 were targeting genes presumed to be neuronally expressed (according to the NCBI database) and 245 randomly chosen targeting genes. […] The morpholino yielding the highest rescue in two separate experiments was studied further. It targets zebrafish receptor tyrosine kinase 2 (RTK2, also known as epha4b), which has 67% identity and 80% homology to the human orthologue EPHA4. Knockdown of RTK2 in fish expressing mutant SOD1 completely and dose-dependently rescued the motor axonopathy (both axonal length and aberrant branching) caused by three different SOD1 mutations: A4V, G93A and G37R (FIG. 1, Panels A-F; Table 2). […] Receptor tyrosine kinase 1 (RTK1, also known as epha4a), the fish paralogue of RTK2, has 83% identity and 92% homology to human EPHA4. RTK1 knockdown was dose-dependently and equally protective as RTK2 knockdown (FIG. 1, Panel G; Table 4). […]

[3] = tested on: zebrafish embryos with knockdown of Smn; test: rescue of motor axon phenotype induced by knockdown of Smn (SMA model)
Experimental: as §1, with “ANOVA and Bonferroni's multiple comparison tests were used for statistical analysis: TDP^A315T/atg-RTK1 (n=24) vs. TDP^A315T/ctr-RTK1 (n=34, p=7.86×10^−5, Panel A), TDP^A315T/C1 (n=21) vs. TDP^A315T/DMSO (n=21, p=0.045, Panel B), atg-smn/atg-RTK1 (n=35) vs. atg-smn/ctr-RTK1 (n=35, p=4.93×10^−8, Panel C), atg-smn/C1 (n=91) vs. atg-smn/DMSO (n=105, p=1.27×10^−6, Panel D). Error bars are s.e.m.” left out
A morpholino database of translation-blocking morpholinos (atg-mo) was used to perform a morpholino-based knockdown screening in a zebrafish model for ALS.^13 The standard control morpholino (5′-[…]-′3) (SEQ ID NO:4), provided by Gene tools, was used as control. Three nanograms of morpholino were co-injected with 1.43 ng of SOD1 mRNA and the effect of gene knockdown on the mutant SOD1-induced axonopathy analyzed. […]

[4] = tested on: zebrafish embryos; test: Toxicity analysis of Compound 1 in zebrafish embryos (total body shape); details: for death: read at 30 hpf; for malformed / normal: zebrafish, in vivo, 24 h
Experimental: Different concentrations of C1 were dissolved in the water of 6 hpf-old zebrafish embryos. At 30 hpf, toxicity (%) of C1 was investigated by analyzing total body shape of the embryos.
as §2

Row | Compound | % affected embryos ([1]; TDPA315T embryos, morpholino 4.5 ng) | % affected embryos ([1]; TDPWT embryos, morpholino 4.5 ng) | effect on outgrowth deficit and aberrant branching induced by mutant TDP-43 ([1]; zebrafish embryos) | body length [2] [mm] | effect on motor axon phenotype induced by knockdown of Smn [3] | death ([4]; C1 250 μM in water from 6 hpf) [%] | death ([4]; C1 500 μM in water from 6 hpf) [%] | death ([4]; C1 750 μM in water from 6 hpf) [%] | death ([4]; C1 1000 μM in water from 6 hpf) [%] | malformed ([4]; 250 μM) [%] | normal ([4]; 250 μM) [%] | malformed ([4]; 500 μM) [%] | normal ([4]; 500 μM) [%] | malformed ([4]; 750 μM) [%] | normal ([4]; 750 μM) [%] | malformed ([4]; 1000 μM) [%] | normal ([4]; 1000 μM) [%] | % affected embryos ([1]; TDPA315T embryos, C1 500 μM) | % affected embryos ([1]; TDPWT embryos, C1 500 μM)
1 | 5′-CTGTGAACACAAGCGCAGCCATTGG-′3 (all phosphorodiamidate morpholino (PMO)) [atg-RTK1] | 11* (43) % | 9 (42) % | rescued the outgrowth deficit and aberrant branching induced by mutant TDP-43 | 2.61±0.01 | rescued the motor axon phenotype induced by knockdown of Smn | – | – | – | – | – | – | – | – | – | – | – | – | – | –
2 | Cc1ccc(C)n1-c1ccc(C(=O)O)c(O)c1 [Compound C1] | – | – | – | – | – | 6.12 | 2.80 | 11.2 | 20 | 5.10 | 88.77 | 3.74 | 93.45 | 12.93 | 75.86 | 80 | 0 | 25° (16) % | 33 (36) %
